These results are taken from patent US7741275B2, “Agents and use thereof” (Lipopeptide AB, priority 2004, dated 2010).

For series [1], the system named is HaCaT cells. Nature of the series: Pertussis toxin assay (LL-37 induced proliferation). Type of series: cell-based, human. As to conditions: pretreatment with pertussis toxin 20 ng/ml 24 h before LL-37 (5 or 10 μg/ml); not shown. How it is done:
To assess the involvement of FPRL1 in mediating the stimulation of epithelial cell proliferation induced by hCAP18/LL-37, HaCaT cells were treated with the G-protein-coupled receptor inhibitor pertussis toxin. Cells were preincubated with pertussis toxin (Sigma-Aldrich, Switzerland) 24 h before the LL-37 treatment in a final toxin concentration of 20 ng/ml. Medium was changed 48 hours after cell seeding and the HaCaT cells were treated with 100 μl of medium (DMEM+5% FCS and PEST) containing synthetic biologically active LL-37 peptide at 5 or 10 μg per ml respectively. Cells treated with only DMEM+5% FCS and PEST served as control.

Another series relates to COX-2 mRNA. Nature of the series: COX-2 expression by RT-PCR. Type of series: cell-based, human. As to conditions: HEKn cells, 2.3 μM LL-37. The method, then: HEKn cells were treated with 2 μM LL-37 and harvested at 6, 12 and 24 hours after stimulation. Untreated cells were used as a control in each time point (light grey columns). RNA from these cells was reverse transcribed and the relative expression of COX-2 with respect to the control was determined by qPCR as above.
(§1) Total RNA was isolated from cells after different treatments according to the manufacturer's directions by using the Quiagen RNasy kit (Operon Biotechnologies, Cologne, Germany). Reverse transcription was performed with a first-strand synthesis kit (Amershan Biosciences)

In series [2] the test system is HaCaT cells. Put plainly: LL-37 peptide treatment of epithelial cells, [3H]-Thymidine incorporation. Type of series: cell-based, human. The conditions noted are these: 5% fetal calf serum, LL-37 10 μg/ml, vs non treated control. How it is done: A spontaneously immortalised human keratinocyte cell line (HaCaT)^19 was cultured in DMEM (Dulbecco's modified Eagle's medium, Gibco BRL, Life Technologies, Scotland) supplemented with 10% FCS (fetal calf serum, Hy-Clone, Boule Nordic AB Huddinge, Sweden) and antibiotics (PEST=penicillin 50 U/l and streptomycin […], Gibco BRL). Cells were harvested at 70% confluence and seeded in 96-well plates, 2000 cells in 100 μl medium (DMEM+10% FCS and PEST). After 12 hours, medium was changed to serum free medium (DMEM+PEST) and cells were synchronized in G0/G1 by serum starvation for 72 hours and then treated with 100 μl of medium (DMEM+5% FCS+PEST) containing synthetic biologically active LL-37 peptide at 10 μg per ml. Cells treated with only DMEM+5% FCS and PEST served as control. The experiments were performed in quadruplicates. Cell proliferation was evaluated by [^3H]-Thymidine incorporation. Cells were treated with 1 μCi/well of [^3H]-Thymidine (20.00 Ci/mmol, Perkin Elmer Life Sciences Inc. Boston, Mass.) during 12 hours and harvested (Harvester 96, Tomtec, Orage, Conn.) onto a glass fiber filter (Wallac Oy Turku, Finland). The incorporation of [^3H]-Thymidine was determined using a liquid scintillation counter (Microbeta Pluss, Wallac Sveriges AB). The experiment was repeated twice in 6 replicates.
(Incorporation of labelled thymidine or its analogues reports DNA synthesis.)

Series [3] is described as follows: Antibacterial assay of synthetic LL-37. The conditions noted are these: synthetic LL-37 peptide. From the text: LL-37 peptide was synthesised and purified by HPLC to a purity of 98% (PolyPeptide Laboratories A/S, Hillerød, Denmark). Biological activity of the peptide was confirmed in an antibacterial assay^18.
Another series concerns IAP-2 mRNA. Put plainly: IAP-2 expression by RT-PCR. Type of series: cell-based, human. The method, then:
HEKn cells were treated with 2 μM LL-37 and harvested at different time points after stimulation. RNA from these cells was reverse transcribed and the expression of IAP-2 was determined by real-time PCR. The transcription level of IAP-2 for each time point is shown normalized against 18S RNA and relative to the untreated cells (control set as 1 for each time point).
HEKn cells were treated with or without the specific COX-2 inhibitor SC-791 (25 nM) and further incubated for 6 hours with or without LL-37 (2 μM).
as §1

For another series, the system named is Caspase-3. Put plainly: Caspase-3 activity assay. Type of series: cell-based, human. How it is done: (§2) 25,000 cells/well were plated in 6-well plate culture dishes. […], cells were treated with 0, 0.23, 0.46, 0.69, 0.9, 1.15, 2.3, 4.6 and 11.5 μM LL-37. Each treatment was performed in triplicate. The peptide was diluted in medium (DMEM 5% FCS to HaCaT cells and Epilife basal Medium supplemented with 0.1% FCS to HEKn cells). The cells were treated during a total time of 24 h. After LL-37 stimulation, the topoisomerase I inhibitor camptothecin (CAM) (Sigma Chemical Co., St. Luis, Mo.) in dimethylsulfoxide was added to the cells to a final 6 μM concentration. Cells were further incubated for 24 h before analysis.
Caspase-3 enzymatic activity was estimated using the fluorometric substrate VDVAD-AMC (100 μM) and DEVD-AMC (50 μM) as previously described.

In another series the test system is HaCaT and HEKn cells. Type of series: cell-based. How it is done: as §2
Two apoptotic parameters, the loss of the membrane integrity and DNA decrease were evaluated by flow cytometry.
Evaluation of Membrane integrity: After stimulation with LL-37, and treatment with CAM, cells were harvested by trypsinization. The cells were then washed in cold Dulbecco's phosphate-buffered saline (PBS) and counted with a haemocytometer (Hausser Scientific, Horsham, Pa.). Cell density was adjusted to 1×10^6 cells/ml in PBS. Apoptosis was detected by staining with propidium iodide and YO-PRO-1 dye (Molecular Probes, Eugene, Oreg.). Stained cells were analyzed on a FACScan (Beckton-Dickinson, San Jose, Calif.). Cells were gated for analysis on the basis of the forward (FSC) and side light scatter characteristics (SSC). Analysis of cells expressing YO-PRO and propidium iodide (PI) was done using Cell Quest software (Becton Dickinson), which provided percentages of YO-PRO and PI-positive cells. Cells that stained green with YO-PRO were considered apoptotic. Cells that stained also red, with propidium iodide, were necrotic. Live, viable cells take up little or no dye.
Analysis of DNA content by flow cytometry. The PI/RNase staining buffer (BectonDickinson) was used for this analysis. Trypsinized cells were fixed in cold 70% (v/v) ethanol, and stored until its use at 4° C. The DNA content was measured through incorporation of propidium iodide into DNA. Fluorometric analysis was performed using a FACScan flow cytometer (Becton and Dickinson, Mountain View, Calif., USA). FSC (forward light scatter) and SSC (side light scatter) of particles were simultaneously measured to determine the size and the granularity of cells. The red fluorescence of PI stained nuclei was detected in the FL-4 window (600 nm band pass filter and 35 nm bandwidth). The intensity of fluorescence was proportional to the cellular DNA content. Each histogram was divided into two parts: (1) the M1 area representing asynchronous, non-apoptotic, live cells (cells in G1,S and G2 phases with DNA content equal to 2n to 4N); and (2) the M2 area representing apoptotic cells with a smaller quantity of DNA in comparison to living cells.

A further series concerns ERK1/2. Nature of the series: Assay of phosphorylated ERK1/2 in LL-37 treated HaCaT cells. Type of series: cell-based, human. The conditions noted are these: LL-37 10 μg/ml, Western blot. How it is done: HaCaT cells were seeded at 10% confluence and kept in DMEM with 0.2% FCS for 36 hours. For the next 48 hours, cells were cultured in DMEM with 1% or 5% FCS respectively, and in presence or absence of LL-37 at 10 μg/ml, with daily changes of medium. EGF at 10 ng/ml served as positive control. The expression of phosphorylated ERK 1/2 was evaluated by Western blot analysis with a mouse monoclonal antibody (Cell Signaling Technology, Beverly Mass.).
On the technique in general: Immunoblotting shows a protein as a band on a membrane.

The subject of series [4] is hCAP18 transcription. Nature of the series: Initial studies on small-molecule control of hCAP18 transcription. Type of series: cell-based, human. The text has this:
Since thus small molecules can control the expression of hCAP18, it is meaningful to systematically screen for inhibitory compounds. Initial studies have shown that estrogen and some of its metabolites have no effect. […] Based on these findings, antagonists to vitamin D, such as ZK159222 (Schering A G), and TEI-9647 (Tejin Institute for Medical Research, Tokyo), and antagonists to vitamin A such as AGN193109 (Allergen Pharmaceuticals), are potential agents for use in the methods of the invention.

Series [5] concerns hCAP18 transcription. The conditions noted are these: via vitamin D receptor binding to response element in hCAP18 promoter; cited from earlier work.

Regarding pertussis toxin, the “suppression of proliferation of HaCaT cells” value in the series on HaCaT cells [1] is listed as “approximately 50%”.
Consider “LL-37: synthetic, biologically active C-terminal 37 amino acid peptide of human cathelicidin hCAP18”, for which, in the series with COX-2 mRNA, the “COX-2 mRNA levels” value is recorded as “time-dependent increase in mRNA levels” and the “time of highest COX-2 mRNA levels” value was 12 h. For the same molecule, the “cell proliferation ([3H]-Thymidine incorporation)” value in the series with HaCaT cells [2] was “significant increase in cell proliferation”. For the same molecule, the “biological activity in antibacterial assay” value in [3] is on record as “confirmed”. Also, the “IAP-2 mRNA” value in the series on IAP-2 mRNA (HEKn cells, 2.3 μM LL-37, from 6 hours to 12 hours after stimulation) is “increased IAP-2 mRNA”. Also, the c-IAP-2 levels entry with IAP-2 mRNA (HEKn cells, LL-37 below 2.3 μM, data not shown) is reported as “did not affect the c-IAP-2 levels”. The “effect on camptothecin-induced caspase activation” value in the series on Caspase-3 (pre-treatment with 2.3 μM LL-37) is “decreased camptothencin-induced caspase activation”. For the same molecule, the “amount of apoptotic cells” value with HaCaT and HEKn cells (24 h with LL-37 alone or simultaneously with LL-37 and CAM, data not shown) is given as “not change in the amount of apoptotic cells”. In the series with HaCaT and HEKn cells (LL-37 0.23 μM up to 2,3 μM for 24 hours before CAM 6 μM 24 h, HEKn and HaCaT cells), the “inhibition of CAM induced apoptosis” value was “inhibited both DNA fragmentation and loss of membrane permeability”. The cell death entry in the series on HaCaT and HEKn cells (LL-37 4.6 μM and 11.5 μM, 24 hours before CAM, non-apoptotic mechanisms) is “caused cell death”. For the same molecule, the “cytotoxicity (increased fraction of necrotic but not apoptotic cells)” value in the series with HaCaT and HEKn cells (LL-37 4.6 and 11.5 μM, alone or simultaneous with CAM) is listed as “cytotoxic”. For the same molecule, the “activation of ERK1/2” value with ERK1/2 is “no significant activation”.
Regarding estrogen, the “effect on hCAP18 expression” value in the series on hCAP18 transcription [4] (initial studies, cells not given) was “no effect”.
In the case of Vitamin A, the figures for the hCAP18 transcription result in the series with hCAP18 transcription [4] (breast cancer cell line ZR-75-1) and in the series with hCAP18 transcription [4] (skin keratinocytes) were “stimulates transcription” and “inhibits the transcription”, respectively.
In the case of `CC[C@@]1(O)C(=O)OCc2c1cc1n(c2=O)Cc2cc3ccccc3nc2-1` [CAM, camptothecin], the “time of peak caspase activity” value in the series with Caspase-3 (keratinocytes, CAM treatment) stood at 24 h. The caspase activity entry in the series on Caspase-3 (keratinocytes, within the first 12 hours of CAM treatment) is on record as “significantly increased”. Besides, the “induction of apoptosis (membrane integrity, DNA profile)” value with HaCaT and HEKn cells (6 μM CAM, 24 hours, HaCaT and keratinocytes) is given as “morphological changes characteristic of apoptosis”.
For the molecule `NS(=O)(=O)c1ccc(-c2c(-c3ccccc3)noc2C(F)F)cc1` [SC-791], in the series on IAP-2 mRNA (HEKn cells pretreated 12 h with 25 nM SC-791, then 2 μM LL-37), the “LL-37 induced increase of IAP-2 mRNA after COX-2 inhibition” value is listed as “did not increase the IAP-2 mRNA levels”.
Consider vitamin D, for which the “induction of hCAP18 transcription” value in the series with hCAP18 transcription [5] is “strongest inducer of hCAP18 transcription”.
